Data reported in patent US20230085307A1, “PYRIDAZINONE COMPOUND AND HERBICIDE” (NISSAN CHEMICAL CORPORATION, priority 2019, published 2023).

What was measured:
false cleavers = assay: Test Example 4: herbicidal effect by soil treatment (Table 19, symbol Q); assay type: in vivo, false cleavers (Galium spurium); settings: amount of applied herbicide 320 g/ha
In short: (§1)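 Scoring uses the grading scale of an earlier test, three weeks post-application. Treatment consists of spraying a diluted emulsion formulation across the surface of sterilized diluvial soil in which seeds are buried near 1.5 cm deep; boxes are kept in a greenhouse between 25° C. and 30° C.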

velvetleaf [1] = assay: Test Example 4: herbicidal effect by soil treatment (Table 19, symbol M); assay type: in vivo, velvetleaf (Abutilon theophrasti); settings: amount of applied herbicide 320 g/ha
In short: as §1

persian speedwell [2] = assay: Test Example 5: herbicidal effect by foliage application, plastic box (Table 20, symbol R); assay type: in vivo, Persian speedwell (Veronica persica); settings: foliage application, 320 g/ha, evaluated three weeks after application
In short: (§2)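 Post-emergence foliar test in sterilized diluvial soil. Compound applied as water-diluted emulsion at a predetermined rate to 14-day-old plants; evaluation at three weeks.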

blackgrass [3] = assay: Test Example 5: herbicidal effect by foliage application, plastic box (Table 20, symbol J); assay type: in vivo, blackgrass (Alopecurus myosuroides); settings: foliage application, 320 g/ha, evaluated three weeks after application
In short: as §2

blackgrass [4] = assay: Test Example 4: herbicidal effect by soil treatment (Table 19, symbol J); assay type: in vivo, blackgrass (Alopecurus myosuroides); settings: amount of applied herbicide 320 g/ha
In short: as §1

chickweed [5] = assay: Test Example 4: herbicidal effect by soil treatment (Table 19, symbol P); assay type: in vivo, common chickweed (Stellaria media); settings: amount of applied herbicide 320 g/ha
In short: as §1

green foxtail [6] = assay: Test Example 5: herbicidal effect by foliage application, plastic box (Table 20, symbol G); assay type: in vivo, green foxtail (Setaria viridis); settings: foliage application, 320 g/ha, evaluated three weeks after application
In short: as §2

southern crabgrass [7] = assay: Test Example 4: herbicidal effect by soil treatment (Table 19, symbol F); assay type: in vivo, southern crabgrass (Digitaria ciliaris); settings: amount of applied herbicide 320 g/ha
In short: as §1

Italian ryegrass [8] = assay: Test Example 5: herbicidal effect by foliage application, plastic box (Table 20, symbol K); assay type: in vivo, Italian ryegrass (Lolium multiflorum); settings: foliage application, 320 g/ha, evaluated three weeks after application
In short: as §2

rice flat sedge = assay: Test Example 3: herbicidal effect by foliage application, Wagner pot (Table 18, symbol E); assay type: in vivo, rice flat sedge (Cyperus iria); settings: amount of applied herbicide 320 g/ha
In short: (§3)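 Plants were sown in alluvial soil held under 0.1–0.5 cm standing water and grown 14 days in a greenhouse at 25–30 °C. An emulsifiable formulation, water-diluted to the set dose, was then sprayed onto the foliage, and effects were scored three weeks later using previously defined criteria.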

windgrass [9] = assay: Test Example 4: herbicidal effect by soil treatment (Table 19, symbol L); assay type: in vivo, windgrass (Apera spica-venti); settings: amount of applied herbicide 320 g/ha
In short: as §1

velvetleaf [10] = assay: Test Example 5: herbicidal effect by foliage application, plastic box (Table 20, symbol M); assay type: in vivo, velvetleaf (Abutilon theophrasti); settings: foliage application, 320 g/ha, evaluated three weeks after application
In short: as §2

barnyard grass [11] = assay: Test Example 5: herbicidal effect by foliage application, plastic box (Table 20, symbol H); assay type: in vivo, barnyard grass (Echinochloa crus-galli); settings: foliage application, 320 g/ha, evaluated three weeks after application
In short: as §2

barnyard grass [12] = assay: Test Example 3: herbicidal effect by foliage application, Wagner pot (Table 18, symbol H); assay type: in vivo, barnyard grass (Echinochloa crus-galli); settings: amount of applied herbicide 320 g/ha
In short: as §3

redroot pigweed [13] = assay: Test Example 4: herbicidal effect by soil treatment (Table 19, symbol N); assay type: in vivo, redroot pigweed (Amaranthus retroflexus); settings: amount of applied herbicide 320 g/ha
In short: as §1

persian speedwell [14] = assay: Test Example 4: herbicidal effect by soil treatment (Table 19, symbol R); assay type: in vivo, Persian speedwell (Veronica persica); settings: amount of applied herbicide 320 g/ha
In short: as §1

chickweed [15] = assay: Test Example 5: herbicidal effect by foliage application, plastic box (Table 20, symbol P); assay type: in vivo, common chickweed (Stellaria media); settings: foliage application, 320 g/ha, evaluated three weeks after application
In short: as §2

windgrass [16] = assay: Test Example 5: herbicidal effect by foliage application, plastic box (Table 20, symbol L); assay type: in vivo, windgrass (Apera spica-venti); settings: foliage application, 320 g/ha, evaluated three weeks after application
In short: as §2

barnyard grass [17] = assay: Test Example 4: herbicidal effect by soil treatment (Table 19, symbol H); assay type: in vivo, barnyard grass (Echinochloa crus-galli); settings: amount of applied herbicide 320 g/ha
In short: as §1

redroot pigweed [18] = assay: Test Example 5: herbicidal effect by foliage application, plastic box (Table 20, symbol N); assay type: in vivo, redroot pigweed (Amaranthus retroflexus); settings: foliage application, 320 g/ha, evaluated three weeks after application
In short: as §2

wild oat [19] = assay: Test Example 5: herbicidal effect by foliage application, plastic box (Table 20, symbol I); assay type: in vivo, wild oat (Avena fatua); settings: foliage application, 320 g/ha, evaluated three weeks after application
In short: as §2

Chinese sprangletop = assay: Test Example 3: herbicidal effect by foliage application, Wagner pot (Table 18, symbol D); assay type: in vivo, chinese sprangletop (Leptochloa chinensis); settings: amount of applied herbicide 320 g/ha
In short: as §3

lambsquarters [20] = assay: Test Example 5: herbicidal effect by foliage application, plastic box (Table 20, symbol O); assay type: in vivo, lambsquarters (Chenopodium album); settings: foliage application, 320 g/ha, evaluated three weeks after application
In short: as §2

wild oat [21] = assay: Test Example 4: herbicidal effect by soil treatment (Table 19, symbol I); assay type: in vivo, wild oat (Avena fatua); settings: amount of applied herbicide 320 g/ha
In short: as §1

southern crabgrass [22] = assay: Test Example 5: herbicidal effect by foliage application, plastic box (Table 20, symbol F); assay type: in vivo, southern crabgrass (Digitaria ciliaris); settings: foliage application, 320 g/ha, evaluated three weeks after application
In short: as §2

green foxtail [23] = assay: Test Example 4: herbicidal effect by soil treatment (Table 19, symbol G); assay type: in vivo, green foxtail (Setaria viridis); settings: amount of applied herbicide 320 g/ha
In short: as §1

Italian ryegrass [24] = assay: Test Example 4: herbicidal effect by soil treatment (Table 19, symbol K); assay type: in vivo, Italian ryegrass (Lolium multiflorum); settings: amount of applied herbicide 320 g/ha
In short: as §1

lambsquarters [25] = assay: Test Example 4: herbicidal effect by soil treatment (Table 19, symbol O); assay type: in vivo, lambsquarters (Chenopodium album); settings: amount of applied herbicide 320 g/ha
In short: as §1

SMILES: Cc1ccc2sc(-c3ccc([N+](=O)[O-])cc3)c(-c3c(O)c(C)nn(C)c3=O)c2c1 [2-144]
- Q: false cleavers, herbicidal effect rating (false cleavers): 0 (Herbicidal rate of 5% or less (almost no effect))
- M: velvetleaf, herbicidal effect rating (velvetleaf [1]): 0 (Herbicidal rate of 5% or less (almost no effect))
- herbicidal effect on R: persian speedwell (criteria 0-5) (persian speedwell [2]): 5 (Herbicidal rate of 90% or more (almost completely withered))
- herbicidal effect on J: blackgrass (criteria 0-5) (blackgrass [3]): 0 (Herbicidal rate of 5% or less (almost no effect))
- J: blackgrass, herbicidal effect rating (blackgrass [4]): 0 (Herbicidal rate of 5% or less (almost no effect))
- P: chickweed, herbicidal effect rating (chickweed [5]): 1 (Herbicidal rate of 5% or more and less than 20%)
- herbicidal effect on G: green foxtail (criteria 0-5) (green foxtail [6]): 0 (Herbicidal rate of 5% or less (almost no effect))
- F: southern crabgrass, herbicidal effect rating (southern crabgrass [7]): 2 (Herbicidal rate of 20% or more and less than 40%)
- herbicidal effect on K: Italian ryegrass (criteria 0-5) (Italian ryegrass [8]): 4 (Herbicidal rate of 70% or more and less than 90%)
- herbicidal effect on E: rice flat sedge (rice flat sedge): 3 (Herbicidal rate of 40% or more and less than 70%)
- L: windgrass, herbicidal effect rating (windgrass [9]): 0 (Herbicidal rate of 5% or less (almost no effect))
- herbicidal effect on M: velvetleaf (criteria 0-5) (velvetleaf [10]): 2 (Herbicidal rate of 20% or more and less than 40%)
- herbicidal effect on H: barnyard grass (criteria 0-5) (barnyard grass [11]): 0 (Herbicidal rate of 5% or less (almost no effect))
- herbicidal effect on H: barnyard grass (barnyard grass [12]): 2 (Herbicidal rate of 20% or more and less than 40%)
- N: redroot pigweed, herbicidal effect rating (redroot pigweed [13]): 3 (Herbicidal rate of 40% or more and less than 70%)
- R: persian speedwell, herbicidal effect rating (persian speedwell [14]): 2 (Herbicidal rate of 20% or more and less than 40%)
- herbicidal effect on P: chickweed (criteria 0-5) (chickweed [15]): 4 (Herbicidal rate of 70% or more and less than 90%)
- herbicidal effect on L: windgrass (criteria 0-5) (windgrass [16]): 0 (Herbicidal rate of 5% or less (almost no effect))
- H: barnyard grass, herbicidal effect rating (barnyard grass [17]): 0 (Herbicidal rate of 5% or less (almost no effect))
- herbicidal effect on N: redroot pigweed (criteria 0-5) (redroot pigweed [18]): 5 (Herbicidal rate of 90% or more (almost completely withered))
- herbicidal effect on I: wild oat (criteria 0-5) (wild oat [19]): 0 (Herbicidal rate of 5% or less (almost no effect))
- herbicidal effect on D: Chinese sprangletop (Chinese sprangletop): 0 (Herbicidal rate of 5% or less (almost no effect))
- herbicidal effect on O: lambsquarters (criteria 0-5) (lambsquarters [20]): 3 (Herbicidal rate of 40% or more and less than 70%)
- I: wild oat, herbicidal effect rating (wild oat [21]): 0 (Herbicidal rate of 5% or less (almost no effect))
- herbicidal effect on F: southern crabgrass (criteria 0-5) (southern crabgrass [22]): 0 (Herbicidal rate of 5% or less (almost no effect))
- G: green foxtail, herbicidal effect rating (green foxtail [23]): 0 (Herbicidal rate of 5% or less (almost no effect))
- K: Italian ryegrass, herbicidal effect rating (Italian ryegrass [24]): 0 (Herbicidal rate of 5% or less (almost no effect))
- O: lambsquarters, herbicidal effect rating (lambsquarters [25]): 3 (Herbicidal rate of 40% or more and less than 70%)
